From BindingDB's records for doi:10.1016/j.bmcl.2004.08.011 (Abbott Laboratories, 2004)

Target: Protein farnesyltransferase subunit beta/geranylgeranyltransferase type-1 subunit alpha (Mus musculus, UniProt Q61239+Q8K2I1)
Assay: Inhibition of H-Ras transformed NIH-3T3-cell proliferation

Structure (SMILES)	EC50 [µM]
CCOc1cccc(-c2cc(C#N)ccc2COCc2cncn2Cc2ccc(C#N)nc2)c1 [5-((5-(((5-cyano-3'-ethoxybiphenyl-2-yl)methoxy)methyl)-1H-imidazol-1-yl)methyl)picolinonitrile]	0.017
N#Cc1ccc(OCc2cncn2Cc2ccc(C#N)c(-c3cccc4ccccc34)c2)nc1 [6-[3-(4-Cyano-3-naphthalen-1-yl-benzyl)-3H-imidazol-4-ylmethoxy]-nicotinonitrile]	0.06
N#Cc1ccc(Cn2cncc2COc2ccc(C#N)c(-c3cccc4ccccc34)c2)cc1 [4-((1-(4-cyanobenzyl)-1H-imidazol-5-yl)methoxy)-2-(naphthalen-1-yl)benzonitrile]	0.0012
N#Cc1ccc(Cn2cncc2COCc2ccc(C#N)cc2-c2ccc3c(c2)OCO3)nc1 [6-((5-((2-(benzo[d][1,3]dioxol-5-yl)-4-cyanobenzyloxy)methyl)-1H-imidazol-1-yl)methyl)nicotinonitrile]	0.029
N#Cc1ccc(COCc2cncn2Cc2ccc(C#N)cc2-c2cccc3ccccc23)cc1 [4-[5-(4-cyano-benzyloxymethyl)-imidazol-1-ylmethyl]-3-naphthalen-1-yl-benzonitrile]	0.461
CC(=O)c1ccc(-c2cc(C#N)ccc2COCc2cncn2Cc2ccc(C#N)cc2)cc1 [4'-acetyl-6-(((1-(4-cyanobenzyl)-1H-imidazol-5-yl)methoxy)methyl)biphenyl-3-carbonitrile]	0.077
N#Cc1ccc(COCc2cncn2Cc2ccc(C#N)nc2)c(-c2ccc3c(c2)OCO3)c1 [5-[5-(2-Benzo[1,3]dioxol-5-yl-4-cyano-benzyloxymethyl)-imidazol-1-ylmethyl]-pyridine-2-carbonitrile]	0.016
CCOc1cccc(-c2cc(C#N)ccc2COCc2cncn2Cc2ccc(Cl)cc2)c1 [6-(((1-(4-chlorobenzyl)-1H-imidazol-5-yl)methoxy)methyl)-3'-ethoxybiphenyl-3-carbonitrile]	0.034
N#Cc1ccc(Cn2cncc2COCc2ccc(C#N)cc2-c2ccc(C(F)(F)F)cc2)cc1 [6-(((1-(4-cyanobenzyl)-1H-imidazol-5-yl)methoxy)methyl)-4'-(trifluoromethyl)biphenyl-3-carbonitrile]	0.0016
N#Cc1ccc(Cn2cncc2COCc2ccc(C#N)cc2-c2cccc(Cl)c2)nc1 [6-[5-(3''-Chloro-5-cyano-biphenyl-2-ylmethoxymethyl)-imidazol-1-ylmethyl]-nicotinonitrile]	0.155
